Results published in patent publication US11987586B1 (TAKEDA PHARMACEUTICAL COMPANY LIMITED, priority 2022, dated 2024).

Target: T1, human OX2 receptor (Homo sapiens, UniProt O43614)
T1 construct: expressed in transfected cells
T1 sequence (O43614 1-444): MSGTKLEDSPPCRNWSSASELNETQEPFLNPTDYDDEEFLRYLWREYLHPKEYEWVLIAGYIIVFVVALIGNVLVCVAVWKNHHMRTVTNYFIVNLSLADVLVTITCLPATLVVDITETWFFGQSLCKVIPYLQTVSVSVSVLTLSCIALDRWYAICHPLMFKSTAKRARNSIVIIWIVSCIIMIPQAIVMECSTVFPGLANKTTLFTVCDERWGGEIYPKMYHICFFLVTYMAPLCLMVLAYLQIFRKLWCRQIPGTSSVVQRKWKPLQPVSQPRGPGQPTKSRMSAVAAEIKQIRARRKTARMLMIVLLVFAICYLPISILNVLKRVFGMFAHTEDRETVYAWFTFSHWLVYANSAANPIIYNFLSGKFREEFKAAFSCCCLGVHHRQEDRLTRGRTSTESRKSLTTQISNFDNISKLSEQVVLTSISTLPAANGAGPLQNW
Assay: Measurement of orexin type 2 receptor agonist activity (calcium fluorescence, Fluo-4, FDSS)
Type: cell-based
Settings: 3 uM test compound; CHO cells expressing human OX2 receptor; DMSO = 0%, 10 nM orexin A (human) = 100%
Method in brief: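 CHO-K1 cells stably expressing human OX2 receptor (residues 1-444) were loaded with Fluo-4 AM plus probenecid. Calcium fluorescence after compound addition was recorded for 1 min 40 s. Activity (%) was scaled between DMSO (0%) and 10 nM orexin A final (100%).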

Structure (SMILES) | OX2R agonist activity (3 uM, %) [%]
CS(=O)(=O)N[C@@H]1CN2C(=O)N(c3noc4cccc(-c5c(F)cccc5F)c34)CC[C@@H]2C1(F)F [Example 206, N-{(4aR,6R)-2-[4-(2,6-difluorophenyl)-1,2-benzoxazol-3-yl]-5,5-difluoro-1-oxooctahydropyrrolo[1,2-c]pyrimidin-6-yl}methanesulfonamide] | 110
CS(=O)(=O)N[C@@H]1CN2C(=O)N(c3noc4cc(F)cc(-c5c(F)cc(F)cc5F)c34)CC[C@@H]2C1(F)F [Example 208, N-{(4aR,6R)-5,5-difluoro-2-[6-fluoro-4-(2,4,6-trifluorophenyl)-1,2-benzoxazol-3-yl]-1-oxooctahydropyrrolo[1,2-c]pyrimidin-6-yl}methanesulfonamide] | 102
COCc1cc(-c2c(F)cc(F)cc2F)c2c(N3CC[C@H]4N(C[C@@H](NS(C)(=O)=O)C4(F)F)C3=O)noc2c1 [Example 210, N-{(4aR,6R)-5,5-difluoro-2-[6-(methoxymethyl)-4-(2,4,6-trifluorophenyl)-1,2-benzoxazol-3-yl]-1-oxooctahydropyrrolo[1,2-c]pyrimidin-6-yl}methanesulfonamide] | 94
CCS(=O)(=O)N[C@@H]1Cn2c(cn(-c3noc4nc(C5CC5)cc(-c5c(F)cccc5F)c34)c2=O)C1(F)F [Example 211, N-{(6R)-2-[6-cyclopropyl-4-(2,6-difluorophenyl)[1,2]oxazolo[5,4-b]pyridin-3-yl]-7,7-difluoro-3-oxo-2,5,6,7-tetrahydro-3H-pyrrolo[1,2-c]imidazol-6-yl}ethanesulfonamide] | 108
CCS(=O)(=O)N[C@@H]1Cn2c(cn(-c3noc4cc(COC)c(F)c(-c5c(F)cccc5F)c34)c2=O)C1(F)F [Example 212, N-{(6R)-2-[4-(2,6-difluorophenyl)-5-fluoro-6-(methoxymethyl)-1,2-benzoxazol-3-yl]-7,7-difluoro-3-oxo-2,5,6,7-tetrahydro-3H-pyrrolo[1,2-c]imidazol-6-yl}ethanesulfonamide] | 100
CCOc1cc(-c2c(F)cc(F)cc2F)c2c(N3CC[C@H]4N(C[C@@H](NS(C)(=O)=O)C4(F)F)C3=O)noc2c1 [Example 217, N-{(4aR,6R)-2-[6-ethoxy-4-(2,4,6-trifluorophenyl)-1,2-benzoxazol-3-yl]-5,5-difluoro-1-oxooctahydropyrrolo[1,2-c]pyrimidin-6-yl}methanesulfonamide] | 104
Cc1cc2onc(-n3cc4n(c3=O)C[C@@H](NS(=O)(=O)N(C)C)C4(F)F)c2c(-c2c(F)cc(F)cc2F)n1 [Example 218, N′-{(6R)-7,7-difluoro-2-[6-methyl-4-(2,4,6-trifluorophenyl)[1,2]oxazolo[4,5-c]pyridin-3-yl]-3-oxo-2,5,6,7-tetrahydro-3H-pyrrolo[1,2-c]imidazol-6-yl}-N,N-dimethylsulfuric diamide] | 108
Cc1cc2onc(-n3cc4n(c3=O)C[C@@H](NS(=O)(=O)C3CC3)C4(F)F)c2c(-c2c(F)cc(F)cc2F)n1 [Example 219, N-{(6R)-7,7-difluoro-2-[6-methyl-4-(2,4,6-trifluorophenyl)[1,2]oxazolo[4,5-c]pyridin-3-yl]-3-oxo-2,5,6,7-tetrahydro-3H-pyrrolo[1,2-c]imidazol-6-yl}cyclopropanesulfonamide] | 103
CCS(=O)(=O)N[C@@H]1CN2C(=O)N(c3noc4cc(C)nc(-c5c(F)cc(F)cc5F)c34)CC[C@@H]2C1(F)F [Example 220, N-{(4aR,6R)-5,5-difluoro-2-[6-methyl-4-(2,4,6-trifluorophenyl)[1,2]oxazolo[4,5-c]pyridin-3-yl]-1-oxooctahydropyrrolo[1,2-c]pyrimidin-6-yl}ethanesulfonamide] | 112
CCS(=O)(=O)N[C@@H]1CN2C(=O)N(c3noc4cc(COC)c(F)c(-c5c(F)cccc5F)c34)CC[C@@H]2C1(F)F [Example 221, N-{(4aR,6R)-2-[4-(2,6-difluorophenyl)-5-fluoro-6-(methoxymethyl)-1,2-benzoxazol-3-yl]-5,5-difluoro-1-oxooctahydropyrrolo[1,2-c]pyrimidin-6-yl}ethanesulfonamide] | 104
CS(=O)(=O)N[C@@H]1CN2C(=O)N(c3noc4cc(Br)cc(-c5c(F)cccc5F)c34)CC[C@@H]2C1(F)F [Example 224, N-{(4aR,6R)-2-[6-bromo-4-(2,6-difluorophenyl)-1,2-benzoxazol-3-yl]-5,5-difluoro-1-oxooctahydropyrrolo[1,2-c]pyrimidin-6-yl}methanesulfonamide] | 109
CS(=O)(=O)N[C@@H]1CN2C(=O)N(c3noc4cc(C(F)(F)F)cc(-c5c(F)cc(F)cc5F)c34)CC[C@@H]2C1(F)F [Example 225, N-{(4aR,6R)-5,5-difluoro-1-oxo-2-[6-(trifluoromethyl)-4-(2,4,6-trifluorophenyl)-1,2-benzoxazol-3-yl]octahydropyrrolo[1,2-c]pyrimidin-6-yl}methanesulfonamide] | 106
COCc1cc2onc(N3CC[C@H]4N(C[C@@H](NS(C)(=O)=O)C4(F)F)C3=O)c2c(-c2c(F)cc(F)cc2F)c1F [Example 227, N-{(4aR,6R)-5,5-difluoro-2-[5-fluoro-6-(methoxymethyl)-4-(2,4,6-trifluorophenyl)-1,2-benzoxazol-3-yl]-1-oxooctahydropyrrolo[1,2-c]pyrimidin-6-yl}methanesulfonamide] | 98
CCc1cc(-c2c(F)cc(F)cc2F)c2c(-n3cc4n(c3=O)C[C@@H](NS(C)(=O)=O)C4(F)F)noc2n1 [Example 230, N-{(6R)-2-[6-ethyl-4-(2,4,6-trifluorophenyl)[1,2]oxazolo[5,4-b]pyridin-3-yl]-7,7-difluoro-3-oxo-2,5,6,7-tetrahydro-3H-pyrrolo[1,2-c]imidazol-6-yl}methanesulfonamide] | 111

The next lines start with the values.

OX2R agonist activity (3 uM, %) [%] | Structure (SMILES)
113 | O=C1N(c2noc3ccc(F)c(-c4c(F)cc(F)cc4F)c23)CC[C@H]2N1C[C@@H](NS(=O)(=O)CF)C2(F)F [Example 207, N-{(4aR,6R)-5,5-difluoro-2-[5-fluoro-4-(2,4,6-trifluorophenyl)-1,2-benzoxazol-3-yl]-1-oxooctahydropyrrolo[1,2-c]pyrimidin-6-yl}-1-fluoromethanesulfonamide]
96 | Cc1cc(-c2c(F)cccc2F)c2c(N3CC[C@H]4N(C[C@@H](NS(C)(=O)=O)C4(F)F)C3=O)noc2c1 [Example 209, N-{(4aR,6R)-2-[4-(2,6-difluorophenyl)-6-methyl-1,2-benzoxazol-3-yl]-5,5-difluoro-1-oxooctahydropyrrolo[1,2-c]pyrimidin-6-yl}methanesulfonamide]
99 | COCc1cc(-c2c(F)cccc2F)c2c(N3CC[C@H]4N(C[C@@H](NS(C)(=O)=O)C4(F)F)C3=O)noc2c1 [Example 215, N-{(4aR,6R)-2-[4-(2,6-difluorophenyl)-6-(methoxymethyl)-1,2-benzoxazol-3-yl]-5,5-difluoro-1-oxooctahydropyrrolo[1,2-c]pyrimidin-6-yl}methanesulfonamide]
107 | COCc1cc(-c2c(F)cc(F)cc2F)c2c(N3CC[C@H]4N(C[C@@H](NS(=O)(=O)C5CC5)C4(F)F)C3=O)noc2c1 [Example 222, N-{(4aR,6R)-5,5-difluoro-2-[6-(methoxymethyl)-4-(2,4,6-trifluorophenyl)-1,2-benzoxazol-3-yl]-1-oxooctahydropyrrolo[1,2-c]pyrimidin-6-yl}cyclopropanesulfonamide]
104 | CS(=O)(=O)N[C@@H]1CN2C(=O)N(c3noc4cccc(-c5ccccc5)c34)CC[C@@H]2C1(F)F [Example 223, N-[(4aR,6R)-5,5-difluoro-1-oxo-2-(4-phenyl-1,2-benzoxazol-3-yl)octahydropyrrolo[1,2-c]pyrimidin-6-yl]methanesulfonamide]
93 | COCc1cc2onc(-n3cc4n(c3=O)C[C@@H](NS(C)(=O)=O)C4(F)F)c2c(-c2c(F)cccc2F)c1F [Example 226, N-{(6R)-2-[4-(2,6-difluorophenyl)-5-fluoro-6-(methoxymethyl)-1,2-benzoxazol-3-yl]-7,7-difluoro-3-oxo-2,5,6,7-tetrahydro-3H-pyrrolo[1,2-c]imidazol-6-yl}methanesulfonamide]
102 | CCOc1cc2onc(N3CC[C@H]4N(C[C@@H](NS(C)(=O)=O)C4(F)F)C3=O)c2c(-c2c(F)cccc2F)c1F [Example 228, N-{(4aR,6R)-2-[4-(2,6-difluorophenyl)-6-ethoxy-5-fluoro-1,2-benzoxazol-3-yl]-5,5-difluoro-1-oxooctahydropyrrolo[1,2-c]pyrimidin-6-yl}methanesulfonamide]
113 | Cc1cc2onc(-n3cc4n(c3=O)C[C@@H](NS(C)(=O)=O)C4(F)F)c2c(-c2c(F)cc(F)cc2F)n1 [Example 229, N-{(6R)-7,7-difluoro-2-[6-methyl-4-(2,4,6-trifluorophenyl)[1,2]oxazolo[4,5-c]pyridin-3-yl]-3-oxo-2,5,6,7-tetrahydro-3H-pyrrolo[1,2-c]imidazol-6-yl}methanesulfonamide]
